≈ marks a conversion by molar mass, not a printed value. Like-named read-outs stand apart in the source and are kept apart here.
What was measured:
[1] = target: T1, acetylcholinesterase (AChE) (Electrophorus electricus, UniProt O42275); experiment: biochemical; assay type: biochemical; conditions: mean ± SD, n = 3
T1 construct: purchased Sigma-Aldrich Co. (St. Louis, MO, USA)
Excerpt: (§1) Methanol (MeOH), ethanol (EtOH), n-hexane (Hx), dichloromethane (DCM), ethyl acetate (EA), n-butanol (BuOH) (Samchun Pure Chemical, Pyeongtaek, Gyeonggi, Korea) and distilled water were used for extraction, fractionation, and open column chromatography. Open column chromatography used silica gel 60 (40–63 μm; Merck, Darmstadt, Germany), Sephadex LH-20 (25–100 μm; Pharmacia, Stockholm, Sweden), MCI CHP 20P (Supelco, St. Louis, MO, USA), and octadecyl-silica (ODS) gel (400–500 mesh; Waters, Milford, MA, USA). Methanol-d4 (CD3OD) and dimethyl sulfoxide-d6 (DMSO-d6) were used for NMR analysis. The molecular weight was determined by ultra-high-performance liquid chromatography (UPLC) and high-resolution mass spectrometry (HRMS) by connecting an electrospray ionization hybrid linear trap-quadruple-Orbitrap MS system (ESI/LTQ-Orbitrap) to an Ultimate 3000 rapid separation liquid chromatography (RSLC) system (Thermo, Darmstadt, Germany). A TECAN Sunrise microplate reader and Infinite F200 pro (Männedorf, Zürich, Switzerland) were used for absorbance and fluorescence, respectively. High performance liquid chromatography (HPLC) was performed using Waters 2695 system pump and Waters 996 Photodiode array detector (Waters, Milford, MA, USA); data was extracted with Empower Pro 2.0 software. The separation column was a Waters Kromasil C18 column (4.6 × 250 mm, 5 μm). HPLC-grade solvents (e.g., acetonitrile and distilled water (H2O)) were purchased from J. T. Baker® (Phillipsburg, PA, USA). HPLC-grade acetic acid was purchased from Fisher Chemical (Janssen Pharmaceuticalaan, Geel, Belgium). In addition, analytical-grade dimethyl sulfoxide (DMSO), used as a solvent in the bioassay, was purchased from DEAJUNG Chemical (Siheung, Gyeonggi, Korea). Reagents and solvents, including AChE from electric eel, acetylthiocholine iodide (ATCh), BChE from equine serum, S-butyrylthiocholine iodide (BTCh), 5,5′- dithiobis [2-nitrobenzoic acid] […] The BACE1 (β-secretase) FRET assay kit was purchased from Pan Vera Co. (Madison, WI, USA).
(§2) The inhibitory activities of the test samples against ChE (AChE and BChE) were evaluated using the spectrophotometric method developed in a previous study. ATCh and BTCh were used as substrates to measure the inhibitory activities of AChE and BChE, respectively. The assay mixture contained 0.1 M sodium phosphate buffer (pH 7.8), 0.3 U/mL AChE or BChE, 0.5 mM DTNB, 0.6 mM ATCh or BTCh, and the tested sample solution that were mixed and incubated for 15 min at room temperature. […] Reactions started on addition of 10 μL of DTNB and 10 μL of either ATCh or BTCh. The ChE inhibitory activity was monitored based on the formation of the yellow 5-thio-2-nitrobenzoate anion at 412 nm for 15 min that was due to the reaction of DTNB and thiocholine released from ATCh or BTCh. All reactions were measured in 96-well microplates and tested in triplicate. The percentage of inhibition (%) was estimated using the following formula: {(Ac − As)/Ac} × 100, where Ac is the enzyme activity without the test sample and As is the enzyme activity with the test sample.

[2] = target: T2, butyrylcholinesterase (BChE) (Equus caballus, UniProt P81908); experiment: biochemical; conditions: isolated compounds, mean ± SD, n = 3
T2 construct: BChE from equine serum; purchased Sigma-Aldrich Co. (St. Louis, MO, USA); host or cells: equine serum
Excerpt: as §1, §2

[3] = target: T3, β-site amyloid precursor protein cleaving enzyme 1 (BACE1) (Homo sapiens, UniProt P56817); experiment: BACE1 (β-secretase) FRET enzyme assay; assay type: biochemical; conditions: mean ± SD, n = 3
T3 construct: purchased Pan Vera Co. (Madison, WI, USA)
Excerpt: as §1
The BACE1 enzyme assay was performed in accordance with the manufacturer’s recommended protocol, with minor modifications. Briefly, the assay mixture contained 1.0 U/mL of BACE1, 50 mM sodium acetate buffer (pH 4.5), the substrate (750 nM Rh-[…]-Quencher in 50 mM ammonium bicarbonate), and samples. […] The reaction mixture was incubated for 60 min at 25 °C in the dark. Prior to measurement, stop solution (2.5 M sodium acetate) was added to the assay mixture. […] All reactions were measured in black 96-well microplates and tested in triplicate. The percentage of inhibition (%) was obtained using the following formula: [1 − (S60 − S0)/(C60 − C0)] × 100, where C60 is the fluorescence of the control after 60 min of incubation, C0 is the initial fluorescence of the control, S60 is the fluorescence of the tested sample after 60 min of incubation, and S0 is the initial fluorescence of the tested sample. BACE1 inhibitory activity assay of each sample was presented in terms of IC50, as calculated from the log dose inhibition curve.

[4] = test system: formation of advanced glycation end-product (AGE); experiment: Inhibition of formation of AGE (BSA with fructose and glucose, fluorescence); assay type: biochemical; conditions: mean ± SD, n = 3; for IC50: isolated compounds
Method: The inhibitory activity of the formation of AGE was measured with a spectrophotometric method developed previously, with slight modifications. Briefly, the assay mixture contained 50 mM phosphate buffer (pH 7.4) with 0.02% sodium azide, 0.4 M fructose and glucose, bovine serum albumin (10 mg/mL), and the sample. Next, the assay mixture was incubated at 60 °C for 2 days. After incubation, 200 μL of the reaction product was measured at excitation and emission wavelengths of 350 and 450 nm, respectively. All samples and positive control (aminoguanidine) were dissolved in 10% analytical-grade DMSO at five different final concentrations. All reactions were measured in black 96-well microplates and tested in triplicate. The percentage of inhibition (%) of the formation of AGE was estimated using the following formula: {(Ac − As)/Ac} × 100, where Ac is the fluorescence of the control and As is the fluorescence of the sample. Inhibition of the formation of AGE of each sample was presented in terms of IC50, as calculated from the log dose-inhibition curve.

[5] = test system: neuroinflammation; set-up: method as in PMID 27623545; conditions: for the treatment of AD; cited from earlier work
[6] = isolated compounds, read-out: IC50 AChE
[7] = isolated compounds, read-out: IC50 BACE1

T2 sequence (P81908 whole entry): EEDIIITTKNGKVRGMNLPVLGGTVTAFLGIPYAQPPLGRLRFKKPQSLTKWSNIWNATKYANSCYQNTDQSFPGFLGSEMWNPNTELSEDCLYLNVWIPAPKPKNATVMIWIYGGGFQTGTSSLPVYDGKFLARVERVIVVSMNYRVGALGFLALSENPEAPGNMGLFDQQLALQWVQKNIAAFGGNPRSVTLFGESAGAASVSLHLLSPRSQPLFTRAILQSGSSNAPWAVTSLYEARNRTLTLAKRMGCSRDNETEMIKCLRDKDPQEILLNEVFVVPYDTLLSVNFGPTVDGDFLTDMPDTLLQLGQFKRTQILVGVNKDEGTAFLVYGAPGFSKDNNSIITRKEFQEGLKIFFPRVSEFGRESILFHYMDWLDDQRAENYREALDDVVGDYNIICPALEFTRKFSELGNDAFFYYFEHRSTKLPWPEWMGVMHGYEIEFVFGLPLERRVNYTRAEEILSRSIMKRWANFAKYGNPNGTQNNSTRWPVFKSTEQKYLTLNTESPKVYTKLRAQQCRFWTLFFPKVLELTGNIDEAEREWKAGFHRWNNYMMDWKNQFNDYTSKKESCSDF
T1 sequence (O42275 24-633): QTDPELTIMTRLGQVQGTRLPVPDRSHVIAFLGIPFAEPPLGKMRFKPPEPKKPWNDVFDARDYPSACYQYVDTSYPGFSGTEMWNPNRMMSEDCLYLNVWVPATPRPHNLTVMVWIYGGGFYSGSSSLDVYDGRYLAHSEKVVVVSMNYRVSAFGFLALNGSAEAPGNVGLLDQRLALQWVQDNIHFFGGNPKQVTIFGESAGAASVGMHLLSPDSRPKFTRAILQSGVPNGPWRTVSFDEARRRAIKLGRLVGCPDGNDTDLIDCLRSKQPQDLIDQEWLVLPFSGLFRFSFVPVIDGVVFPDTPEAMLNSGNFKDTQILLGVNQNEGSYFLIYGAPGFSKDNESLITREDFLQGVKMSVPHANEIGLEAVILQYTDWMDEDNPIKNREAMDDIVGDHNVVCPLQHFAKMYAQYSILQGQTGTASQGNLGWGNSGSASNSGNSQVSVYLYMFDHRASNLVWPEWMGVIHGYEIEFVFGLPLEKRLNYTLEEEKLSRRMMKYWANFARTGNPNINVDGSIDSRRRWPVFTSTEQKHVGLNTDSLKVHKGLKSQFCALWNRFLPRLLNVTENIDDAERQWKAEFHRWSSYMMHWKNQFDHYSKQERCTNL
T3 sequence (P56817 22-501 limits assumed): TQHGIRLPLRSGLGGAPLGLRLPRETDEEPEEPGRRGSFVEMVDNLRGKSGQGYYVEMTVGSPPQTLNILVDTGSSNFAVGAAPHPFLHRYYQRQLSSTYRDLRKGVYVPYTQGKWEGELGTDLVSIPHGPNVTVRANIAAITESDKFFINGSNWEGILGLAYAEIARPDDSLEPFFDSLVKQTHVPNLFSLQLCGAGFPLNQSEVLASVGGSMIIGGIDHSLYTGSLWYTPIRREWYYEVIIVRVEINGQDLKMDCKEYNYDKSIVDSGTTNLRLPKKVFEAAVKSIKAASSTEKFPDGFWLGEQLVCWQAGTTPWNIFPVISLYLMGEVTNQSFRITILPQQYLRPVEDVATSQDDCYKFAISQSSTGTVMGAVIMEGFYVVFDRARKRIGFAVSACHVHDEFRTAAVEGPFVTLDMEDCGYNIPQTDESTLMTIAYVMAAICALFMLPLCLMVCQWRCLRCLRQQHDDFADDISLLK

Row | SMILES | IC50 [1, 6] | IC50 ([2]; read-out: IC50 BChE) | IC50 ([3]; IC50 BACE1, isolated compounds) | IC50 [4] | other results
1 | COC(=O)C1=CO[C@@H](O[C@@H]2O[C@H](CO)[C@@H](O)[C@H](O)[C@H]2O)[C@@H]2C(CO)=C[C@@H](OC(=O)/C=C/c3ccc(O)c(OC)c3)[C@H]12 [Compound 3, E-6-O-feruloyl scandoside methyl ester] | 96.8 ± 5.29 µM | 116 ± 29.4 µM | 121 ± 11.9 µM | – | –
2 | CC(=O)OCC1=C[C@H](O)[C@@H]2C(C(=O)O)=CO[C@@H](O[C@@H]3O[C@H](CO)[C@@H](O)[C@H](O)[C@H]3O)[C@H]12 [Compound 9, asperulosidic acid] | – | – | > 500 µM | – | IC50 ([1]; IC50 AChE, isolated compounds): 68.3 ± 5.11 µM; IC50 ([2]; IC50 BChE): 80.3 ± 19.8 µM
3 | N=C(N)NN [AMG, aminoguanidine, reference compound] | – | – | – | – | IC50 AGE Formation ([4]; extract and fractions): 131.92 ± 11.24 µg/mL (≈ 1780 µM)
4 | COC(=O)C1=CO[C@@H](O[C@@H]2O[C@H](CO)[C@@H](O)[C@H](O)[C@H]2O)[C@@H]2C(CO)=C[C@@H](OC(=O)/C=C/c3ccc(O)cc3)[C@H]12 [Compound 1, E-6-O-p-coumaroyl scandoside methyl ester] | 304 ± 12.2 µM | – | 63.3 ± 4.56 µM | 105 ± 14.5 µM | –
5 | COC(=O)C1=CO[C@@H](O[C@@H]2O[C@H](CO)[C@@H](O)[C@H](O)[C@H]2O)[C@@H]2C(CO)=C[C@H](O)[C@H]12 [Compound 4, deacetylasperulosidic acid methyl ester] | 172 ± 20.6 µM | 17.6 ± 0.78 µM | – | – | IC50 [3, 7]: > 500 µM
6 | COC(=O)C1=CO[C@@H](O[C@@H]2O[C@H](CO)[C@@H](O)[C@H](O)[C@H]2O)[C@@H]2C(CO)=C[C@@H](OC(=O)/C=C/c3ccc(O)cc3)[C@H]12 [Compound 2, 6-O-p-coumaroyl scandoside methyl ester] | 298 ± 22.7 µM | – | 121 ± 14.8 µM | 381 ± 42.7 µM | –
7 | COc1ccc2cc3[n+](cc2c1OC)CCc1cc2c(cc1-3)OCO2 [Berberine, berberine, reference compound] | – | – | – | – | IC50 ([1]; IC50 AChE, extract and fractions): 0.327 µM; IC50 ([1]; IC50 AChE, isolated compounds): 0.31 ± 0.01 µM
8 | COC(=O)C1=CO[C@@H](O[C@@H]2O[C@H](CO)[C@@H](O)[C@H](O)[C@H]2O)[C@@H]2C(CO)=C[C@@H](O)[C@H]12 [Compound 8, scandoside methyl ester] | 158 ± 13.2 µM | 16.2 ± 2.05 µM | – | – | IC50 [3, 7]: > 500 µM
9 | COC(=O)C1=CO[C@@H](O[C@@H]2O[C@H](CO)[C@@H](O)[C@H](O)[C@H]2O)[C@@H]2C(CO)=C[C@@H](OC)[C@H]12 [Compound 7, 6-O-Methylscandoside methyl ester] | – | 11.6 ± 0.68 µM | > 500 µM | – | IC50 AChE ([1]; isolated compounds): did not inhibit AChE
10 | CC(=O)OCC1=C[C@@H]2OC(=O)C3=CO[C@@H](O[C@@H]4O[C@H](CO)[C@@H](O)[C@H](O)[C@H]4O)[C@H]1[C@@H]32 [Compound 5, asperuloside] | – | – | > 500 µM | > 1000 µM | IC50 ([1]; IC50 AChE, isolated compounds): 259 ± 7.48 µM; IC50 ([2]; IC50 BChE): > 500 µM
11 | COC(=O)C1=CO[C@@H](O[C@@H]2O[C@H](CO)[C@@H](O)[C@H](O)[C@H]2O)[C@@H]2C(CO)=C[C@H](OC)[C@H]12 [Compound 6, 6-O-Methyldeacetylasperulosidic acid methyl ester] | 81.1 ± 5.58 µM | 32.2 ± 2.8 µM | > 500 µM | – | –
12 | O=c1c(O[C@@H]2O[C@H](CO)[C@@H](O)[C@H](O)[C@H]2O[C@@H]2O[C@H](CO)[C@@H](O)[C@H](O)[C@H]2O)c(-c2ccc(O)c(O)c2)oc2cc(O)cc(O)c12 [compound β, quercetin-3-O-sophoroside] | – | – | – | – | neuroinflammation inhibitory activity [5]: does not show effective neuroinflammation inhibitory activity
13 | COc1cc(/C=C/C(=O)OC[C@H]2O[C@@H](O[C@H]3[C@H](Oc4c(-c5ccc(O)c(O)c5)oc5cc(O)cc(O)c5c4=O)O[C@H](CO)[C@@H](O)[C@@H]3O)[C@H](O)[C@@H](O)[C@@H]2O)ccc1O [Compound 10, quercetin-3-O-[2″-O-(6‴-O-E-feruloyl)-β-D-glucopyranosyl]-β-D-glucopyranoside] | 46.2 ± 1.59 µM | 13.8 ± 0.37 µM | 4.49 ± 1.86 µM | 2.71 ± 0.06 µM | –

— publication PMC7764330, “Bioassay-Guided Isolation of Anti-Alzheimer Active Components from the Aerial Parts of Hedyotis diffusa and Simultaneous Analysis for Marker Compounds” (Molecules, 2020)
